Experimental data reported in ChEMBL document CHEMBL5696442, “Discovery of type II inhibitors of TGFβ-activated kinase 1 (TAK1) and mitogen-activated protein kinase kinase kinase kinase 2 (MAP4K2)” (J Med Chem, 2015).

Legend:
[1] = biological target: T1, Serine/threonine-protein kinase TBK1 (Homo sapiens) (UniProt Q9UHD2); assay: Inhibition of TBK1 K1 labeling site in human Huh-7 cells at 1 uM by KiNativ Profiling analysis relative to control; assay type: cell-based
T1 sequence (whole entry): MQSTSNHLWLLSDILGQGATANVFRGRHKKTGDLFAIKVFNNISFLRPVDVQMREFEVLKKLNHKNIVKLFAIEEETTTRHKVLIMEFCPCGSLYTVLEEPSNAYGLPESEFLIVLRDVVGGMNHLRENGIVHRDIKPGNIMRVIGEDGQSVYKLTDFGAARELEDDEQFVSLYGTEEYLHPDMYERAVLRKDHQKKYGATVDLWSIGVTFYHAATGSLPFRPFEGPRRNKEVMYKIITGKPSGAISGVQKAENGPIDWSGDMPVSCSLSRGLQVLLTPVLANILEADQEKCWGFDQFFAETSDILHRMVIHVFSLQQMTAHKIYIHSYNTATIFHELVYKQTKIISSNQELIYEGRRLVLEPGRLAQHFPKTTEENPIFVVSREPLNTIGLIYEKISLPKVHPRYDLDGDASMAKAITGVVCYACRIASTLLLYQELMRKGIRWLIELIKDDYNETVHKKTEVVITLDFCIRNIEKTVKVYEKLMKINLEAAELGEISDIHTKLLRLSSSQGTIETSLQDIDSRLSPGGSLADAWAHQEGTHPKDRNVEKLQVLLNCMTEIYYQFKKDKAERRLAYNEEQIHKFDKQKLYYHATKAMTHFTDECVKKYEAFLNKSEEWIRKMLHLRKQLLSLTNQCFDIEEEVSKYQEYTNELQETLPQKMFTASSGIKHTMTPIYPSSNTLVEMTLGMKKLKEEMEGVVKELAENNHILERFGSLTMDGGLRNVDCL

[2] = biological target: p38 delta/gamma (Homo sapiens) (UniProt O15264+P53778); assay: Inhibition of p38d/g K2 labeling site in human Huh-7 cells at 10 uM by KiNativ Profiling analysis relative to control; assay type: cell-based
[3] = biological target: Cyclin-dependent kinase 18 (Homo sapiens) (UniProt Q07002); assay: Inhibition of PCTAIRE3 Lys1 labeling site in human Huh-7 cells at 1 uM by KiNativ Profiling analysis relative to control; assay type: cell-based
Chain of Cyclin-dependent kinase 18 (Homo sapiens) (Q07002 whole entry): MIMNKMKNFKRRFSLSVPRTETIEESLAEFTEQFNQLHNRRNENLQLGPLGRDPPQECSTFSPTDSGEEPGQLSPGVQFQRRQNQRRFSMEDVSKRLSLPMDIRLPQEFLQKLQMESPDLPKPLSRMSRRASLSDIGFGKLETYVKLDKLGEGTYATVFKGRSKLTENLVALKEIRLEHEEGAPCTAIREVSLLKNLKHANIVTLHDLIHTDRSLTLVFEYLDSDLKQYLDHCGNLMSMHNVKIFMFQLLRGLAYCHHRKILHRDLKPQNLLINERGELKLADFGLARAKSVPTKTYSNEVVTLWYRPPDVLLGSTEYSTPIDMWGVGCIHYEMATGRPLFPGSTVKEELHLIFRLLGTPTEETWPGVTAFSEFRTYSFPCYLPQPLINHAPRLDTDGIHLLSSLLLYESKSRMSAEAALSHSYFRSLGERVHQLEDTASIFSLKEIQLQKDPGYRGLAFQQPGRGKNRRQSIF

[4] = biological target: TRAF2 and NCK-interacting protein kinase (Homo sapiens) (UniProt Q9UKE5); assay: Inhibition of ZC2/TNIK Lys1 labeling site in human Huh-7 cell lysate at 1 uM by KiNativ Profiling analysis relative to control; assay type: subcellular
Chain of TRAF2 and NCK-interacting protein kinase (Homo sapiens) (Q9UKE5 whole entry, looked up): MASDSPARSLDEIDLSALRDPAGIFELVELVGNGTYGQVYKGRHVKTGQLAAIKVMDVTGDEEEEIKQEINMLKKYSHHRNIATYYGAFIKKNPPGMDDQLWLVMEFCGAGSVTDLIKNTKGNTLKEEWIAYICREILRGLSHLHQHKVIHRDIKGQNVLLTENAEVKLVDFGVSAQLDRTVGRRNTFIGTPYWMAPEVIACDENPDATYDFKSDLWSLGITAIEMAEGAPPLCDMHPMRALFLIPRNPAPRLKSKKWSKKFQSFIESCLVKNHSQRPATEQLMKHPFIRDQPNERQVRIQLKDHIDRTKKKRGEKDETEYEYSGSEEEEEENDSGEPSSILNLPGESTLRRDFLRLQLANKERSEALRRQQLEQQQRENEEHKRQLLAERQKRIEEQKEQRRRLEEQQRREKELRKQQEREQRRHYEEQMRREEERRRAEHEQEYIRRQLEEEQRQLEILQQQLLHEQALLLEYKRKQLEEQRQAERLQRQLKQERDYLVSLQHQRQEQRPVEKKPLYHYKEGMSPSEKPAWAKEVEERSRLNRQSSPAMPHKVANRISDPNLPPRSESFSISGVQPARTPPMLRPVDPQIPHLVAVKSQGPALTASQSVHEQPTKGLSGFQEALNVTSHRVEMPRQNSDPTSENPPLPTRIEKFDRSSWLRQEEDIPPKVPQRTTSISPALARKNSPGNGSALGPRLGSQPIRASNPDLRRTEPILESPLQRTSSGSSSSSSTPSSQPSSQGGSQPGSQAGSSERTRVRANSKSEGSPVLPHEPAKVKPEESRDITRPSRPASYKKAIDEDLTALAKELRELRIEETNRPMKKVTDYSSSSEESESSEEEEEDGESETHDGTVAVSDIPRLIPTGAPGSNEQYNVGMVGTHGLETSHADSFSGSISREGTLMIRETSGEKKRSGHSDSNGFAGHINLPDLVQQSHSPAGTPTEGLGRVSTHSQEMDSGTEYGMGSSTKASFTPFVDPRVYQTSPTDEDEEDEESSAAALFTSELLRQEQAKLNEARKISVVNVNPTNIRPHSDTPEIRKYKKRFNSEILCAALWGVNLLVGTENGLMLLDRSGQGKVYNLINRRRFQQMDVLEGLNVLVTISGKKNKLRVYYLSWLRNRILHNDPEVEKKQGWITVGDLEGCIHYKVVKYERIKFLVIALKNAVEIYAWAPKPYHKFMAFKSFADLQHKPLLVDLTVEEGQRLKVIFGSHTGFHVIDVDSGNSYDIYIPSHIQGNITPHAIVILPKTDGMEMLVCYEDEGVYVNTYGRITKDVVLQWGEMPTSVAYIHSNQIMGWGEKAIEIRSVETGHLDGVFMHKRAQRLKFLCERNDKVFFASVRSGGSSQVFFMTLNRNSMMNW

[5] = biological target: T2, Serine/threonine-protein kinase TAO2 (Homo sapiens) (UniProt Q9UL54); assay: Inhibition of TAO2 Lys2 labeling site in human Huh-7 cell lysate at 1 uM by KiNativ Profiling analysis relative to control; assay type: subcellular
T2 sequence (whole entry): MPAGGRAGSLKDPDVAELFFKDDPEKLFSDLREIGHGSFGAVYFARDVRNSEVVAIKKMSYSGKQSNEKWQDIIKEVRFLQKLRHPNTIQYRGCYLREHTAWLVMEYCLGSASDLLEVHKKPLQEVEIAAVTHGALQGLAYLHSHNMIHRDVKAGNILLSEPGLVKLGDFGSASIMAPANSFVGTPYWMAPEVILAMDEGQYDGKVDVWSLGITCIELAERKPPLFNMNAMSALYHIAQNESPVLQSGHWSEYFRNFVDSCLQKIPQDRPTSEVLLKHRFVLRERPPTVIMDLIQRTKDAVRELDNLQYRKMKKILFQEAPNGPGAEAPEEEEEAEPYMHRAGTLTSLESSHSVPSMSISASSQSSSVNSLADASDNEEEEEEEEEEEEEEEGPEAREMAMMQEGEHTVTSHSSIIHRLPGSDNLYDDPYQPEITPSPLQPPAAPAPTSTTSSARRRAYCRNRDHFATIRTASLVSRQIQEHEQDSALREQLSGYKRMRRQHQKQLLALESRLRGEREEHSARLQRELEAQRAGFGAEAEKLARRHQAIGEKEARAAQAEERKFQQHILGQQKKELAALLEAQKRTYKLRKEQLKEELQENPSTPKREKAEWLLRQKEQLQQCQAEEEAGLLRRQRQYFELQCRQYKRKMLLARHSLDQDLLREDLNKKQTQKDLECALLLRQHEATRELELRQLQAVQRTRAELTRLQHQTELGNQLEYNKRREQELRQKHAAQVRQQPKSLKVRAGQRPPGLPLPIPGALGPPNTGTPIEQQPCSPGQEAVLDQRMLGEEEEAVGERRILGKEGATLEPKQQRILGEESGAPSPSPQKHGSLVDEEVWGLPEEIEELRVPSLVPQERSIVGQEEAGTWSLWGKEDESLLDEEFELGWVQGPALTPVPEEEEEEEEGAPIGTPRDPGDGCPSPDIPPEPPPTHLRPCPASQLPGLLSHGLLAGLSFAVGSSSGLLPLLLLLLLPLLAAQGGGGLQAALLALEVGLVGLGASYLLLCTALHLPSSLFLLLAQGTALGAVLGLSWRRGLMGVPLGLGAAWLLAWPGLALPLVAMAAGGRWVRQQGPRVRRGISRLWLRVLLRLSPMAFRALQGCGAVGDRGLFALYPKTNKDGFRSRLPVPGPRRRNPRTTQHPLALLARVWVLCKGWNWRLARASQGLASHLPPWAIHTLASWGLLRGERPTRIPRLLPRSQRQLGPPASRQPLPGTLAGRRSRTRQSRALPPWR

[6] = biological target: Serine/threonine-protein kinase 4 (Homo sapiens) (UniProt Q13043); assay: Inhibition of MST1 Lys2 labeling site harbouring DIKAGNILLNTEGHAK in human A-375 cells at 0.5 uM by KiNativ Profiling analysis relative to control
Chain of Serine/threonine-protein kinase 4 (Homo sapiens) (Q13043 whole entry, looked up): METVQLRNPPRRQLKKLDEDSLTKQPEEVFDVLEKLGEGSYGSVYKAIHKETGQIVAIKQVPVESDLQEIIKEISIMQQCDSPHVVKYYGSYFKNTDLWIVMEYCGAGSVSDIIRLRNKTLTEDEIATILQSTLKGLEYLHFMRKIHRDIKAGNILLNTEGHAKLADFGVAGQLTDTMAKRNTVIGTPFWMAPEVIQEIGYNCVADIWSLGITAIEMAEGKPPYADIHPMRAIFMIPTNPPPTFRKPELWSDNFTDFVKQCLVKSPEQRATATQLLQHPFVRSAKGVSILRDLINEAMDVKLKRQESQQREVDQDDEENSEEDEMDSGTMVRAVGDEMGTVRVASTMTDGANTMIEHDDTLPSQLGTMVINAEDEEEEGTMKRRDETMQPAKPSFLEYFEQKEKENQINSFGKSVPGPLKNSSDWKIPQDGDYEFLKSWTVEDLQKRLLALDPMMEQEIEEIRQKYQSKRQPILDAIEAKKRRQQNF

[7] = biological target: Tyrosine-protein kinase TXK (Homo sapiens) (UniProt P42681); assay: Inhibition of TXK (unknown origin) at 1 uM by Ambit Kinomescan binding assay relative to control
Chain of Tyrosine-protein kinase TXK (Homo sapiens) (P42681 whole entry): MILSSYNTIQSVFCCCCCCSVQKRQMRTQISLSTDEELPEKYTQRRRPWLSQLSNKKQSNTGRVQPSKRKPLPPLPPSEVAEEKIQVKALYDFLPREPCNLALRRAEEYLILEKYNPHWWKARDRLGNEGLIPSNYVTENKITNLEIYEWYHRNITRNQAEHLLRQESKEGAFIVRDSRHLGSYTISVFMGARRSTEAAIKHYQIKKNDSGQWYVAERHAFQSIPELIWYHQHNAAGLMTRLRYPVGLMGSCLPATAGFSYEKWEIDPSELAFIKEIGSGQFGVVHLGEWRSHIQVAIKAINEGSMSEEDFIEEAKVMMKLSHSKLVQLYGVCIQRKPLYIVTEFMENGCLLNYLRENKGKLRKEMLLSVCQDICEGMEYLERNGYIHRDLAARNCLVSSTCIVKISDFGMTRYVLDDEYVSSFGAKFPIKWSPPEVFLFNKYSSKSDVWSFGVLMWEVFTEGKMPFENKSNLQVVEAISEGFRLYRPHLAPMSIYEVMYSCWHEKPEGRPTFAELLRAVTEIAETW

[8] = test system: Mast/stem cell growth factor receptor Kit (Homo sapiens), P10721 [D816V]; assay: Inhibition of KIT D816V mutant (unknown origin) at 1 uM by Ambit Kinomescan binding assay relative to control; values are per cent of control
Chain of Mast/stem cell growth factor receptor Kit (Homo sapiens), P10721 [D816V] (P10721 whole entry D816V, the tested form may be a part): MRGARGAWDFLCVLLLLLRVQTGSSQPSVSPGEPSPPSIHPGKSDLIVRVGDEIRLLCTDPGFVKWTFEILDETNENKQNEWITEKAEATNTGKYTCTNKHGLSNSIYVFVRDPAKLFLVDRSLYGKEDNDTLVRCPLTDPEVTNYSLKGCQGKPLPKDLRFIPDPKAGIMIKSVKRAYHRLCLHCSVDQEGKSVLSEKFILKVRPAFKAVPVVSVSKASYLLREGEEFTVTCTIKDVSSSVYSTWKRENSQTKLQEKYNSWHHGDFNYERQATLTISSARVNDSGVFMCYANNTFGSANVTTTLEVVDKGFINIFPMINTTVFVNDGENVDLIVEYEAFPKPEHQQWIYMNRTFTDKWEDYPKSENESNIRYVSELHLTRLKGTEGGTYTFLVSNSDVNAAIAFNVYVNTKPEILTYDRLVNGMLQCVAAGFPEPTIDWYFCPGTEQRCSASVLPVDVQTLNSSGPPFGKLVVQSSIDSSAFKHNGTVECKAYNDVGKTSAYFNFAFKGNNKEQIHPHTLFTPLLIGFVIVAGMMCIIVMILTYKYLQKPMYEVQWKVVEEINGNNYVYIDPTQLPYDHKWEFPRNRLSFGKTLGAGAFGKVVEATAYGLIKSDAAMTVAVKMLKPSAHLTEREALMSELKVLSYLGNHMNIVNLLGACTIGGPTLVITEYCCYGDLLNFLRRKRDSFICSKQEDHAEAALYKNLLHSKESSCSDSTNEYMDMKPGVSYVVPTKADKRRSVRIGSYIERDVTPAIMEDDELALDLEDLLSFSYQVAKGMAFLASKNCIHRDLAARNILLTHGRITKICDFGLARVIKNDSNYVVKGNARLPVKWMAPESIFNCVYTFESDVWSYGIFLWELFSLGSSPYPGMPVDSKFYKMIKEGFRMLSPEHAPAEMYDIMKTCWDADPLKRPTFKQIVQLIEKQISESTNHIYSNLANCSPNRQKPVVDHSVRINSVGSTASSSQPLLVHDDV

[9] = biological target: LIM domain kinase 2 (Homo sapiens) (UniProt P53671); assay: Inhibition of LIMK2 (unknown origin) at 1 uM by Ambit Kinomescan binding assay relative to control; values are per cent of control
Chain of LIM domain kinase 2 (Homo sapiens) (P53671 whole entry, looked up, the tested form may be a part): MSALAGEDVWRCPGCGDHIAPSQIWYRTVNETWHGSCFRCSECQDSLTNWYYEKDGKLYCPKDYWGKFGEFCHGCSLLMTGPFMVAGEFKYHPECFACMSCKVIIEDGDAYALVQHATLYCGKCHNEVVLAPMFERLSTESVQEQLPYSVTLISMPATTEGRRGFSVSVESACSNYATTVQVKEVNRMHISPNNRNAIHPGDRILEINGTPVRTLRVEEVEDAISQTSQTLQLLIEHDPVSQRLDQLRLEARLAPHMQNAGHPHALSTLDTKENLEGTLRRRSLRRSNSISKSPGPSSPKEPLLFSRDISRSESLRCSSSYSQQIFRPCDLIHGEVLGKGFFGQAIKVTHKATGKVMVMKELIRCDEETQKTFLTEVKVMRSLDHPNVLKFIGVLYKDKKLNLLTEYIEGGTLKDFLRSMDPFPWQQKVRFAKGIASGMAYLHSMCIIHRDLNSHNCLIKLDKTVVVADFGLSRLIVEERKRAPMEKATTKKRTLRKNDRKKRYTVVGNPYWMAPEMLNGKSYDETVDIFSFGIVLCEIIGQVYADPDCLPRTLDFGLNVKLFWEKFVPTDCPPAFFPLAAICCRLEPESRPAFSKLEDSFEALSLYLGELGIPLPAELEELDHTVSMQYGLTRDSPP

[10] = biological target: Calcium/calmodulin-dependent protein kinase kinase 2 (Homo sapiens) (UniProt Q96RR4); assay: Inhibition of CaMKK2 Lys1 labeling site in human A-375 cells at 0.05 uM by KiNativ Profiling analysis relative to control; assay type: cell-based
Chain of Calcium/calmodulin-dependent protein kinase kinase 2 (Homo sapiens) (Q96RR4 2-588 limits assumed): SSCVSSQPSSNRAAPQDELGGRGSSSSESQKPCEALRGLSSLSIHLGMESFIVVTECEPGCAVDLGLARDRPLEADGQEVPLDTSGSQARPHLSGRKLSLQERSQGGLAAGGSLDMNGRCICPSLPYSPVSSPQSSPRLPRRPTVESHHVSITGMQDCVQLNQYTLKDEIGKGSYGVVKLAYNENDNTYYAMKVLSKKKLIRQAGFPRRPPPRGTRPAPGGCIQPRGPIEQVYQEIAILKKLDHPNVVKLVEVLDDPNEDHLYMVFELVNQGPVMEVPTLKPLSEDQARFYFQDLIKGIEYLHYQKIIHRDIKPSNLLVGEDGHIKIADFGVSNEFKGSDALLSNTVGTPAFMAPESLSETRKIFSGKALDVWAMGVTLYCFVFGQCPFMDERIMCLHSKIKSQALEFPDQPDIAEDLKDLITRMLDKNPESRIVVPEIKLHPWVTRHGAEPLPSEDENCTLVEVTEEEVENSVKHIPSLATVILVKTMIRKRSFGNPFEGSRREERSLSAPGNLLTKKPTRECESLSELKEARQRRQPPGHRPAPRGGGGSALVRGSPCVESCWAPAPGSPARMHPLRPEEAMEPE

## CCN1CCN(Cc2ccc(NC(=O)c3ccc(C)c(Oc4ccnc5[nH]ccc45)c3)cc2C(F)(F)F)CC1
[1]
  inhibition: -9.5%
[2]
  inhibition: 65%

## CNc1cc(Oc2cc(C(=O)Nc3cc(N4CCN(C)CC4)cc(C(F)(F)F)c3)ccc2C)ncn1
[3]
  inhibition: 12%
[4]
  inhibition: 11.9%
[5]
  inhibition: 7.5%

## CCN1CCN(Cc2ccc(NC(=O)c3ccc(C)c(/C=C/c4cnc5[nH]ccc5c4OC)c3)cc2C(F)(F)F)CC1
[6]
  inhibition: -9.8%
[7]
  inhibition: 1.4%
[8]
  residual activity: 8.8%
[9]
  residual activity: 26%
[10]
  inhibition: 3.5%
